Test results reported in patent publication EP0280603A1, “Absolute S confirmation enantiomers of amide derivatives of 3-aminoquinuclidine, process for their preparation and their therapeutical use” (DELALANDE S.A., priority 1987, dated 1988).

Key:
[1] = test system: vomissements induits par le cisplatine; assay: Oral antiemetic activity against cisplatin-induced vomiting in the dog; type: in vivo, chien; conditions: for VOMISSEMENTS % DE DIMINUTION EN NOMBRE / VOMISSEMENTS % DE DIMINUTION EN TOUT OU RIEN / VOMISSEMENTS NOMBRE MOYEN: 6 h observation, 4 dogs; for VOMISSEMENTS NOMBRE MOYEN: control 10,8
Text: A titre d'exemple, on étudie ci-après l'activité antiémétique par voie orale du chlorhydrate du N-(quinuclidinyl-3) amino-4 chloro-5 méthoxy-2 benzamide, sous la forme du mélange racémique (code MD 780209), de l'énantiomère lévogyre de configuration S (code MD 200054) et de l'énantiomère dextrogyre de configuration R (code MD 200051), vis-à-vis des vomissements induits par le cisplatine chez le chien.
La méthode est dérivée de celle décrite par J.A. GYLYS et coll. (Res. Commun. Chem. Pathol. Pharmacol. 1979, 23, n° 1, p. 61-68). Les vomissements sont induits par injection intraveineuse de cisplatine (DCI) à la dose de 3 mg/kg chez des chiens tout-venants, mâle ou femelle, de poids compris entre 10 et 16 kg, à la diète hydrique depuis 24 heures.
Les composés à tester sont administrés par voie orale 60 minutes après l'injection de cisplatine.
Les animaux sont alimentés 1 h 30 après le traitement. La durée d'observation est de 6 heures après l'injection de cisplatine.

[2] = Side effects and toxicity at the active doses (no method described); type: in vivo; conditions: in words, compared with the dextrorotatory enantiomer
[3] = dog, 7,5 μ g/kg oral 60 min after cisplatin 3 mg/kg i.v.
[4] = dog, 15 μ g/kg oral 60 min after cisplatin 3 mg/kg i.v.
[5] = dog, 30 μ g/kg oral 60 min after cisplatin 3 mg/kg i.v.

For `COc1cc(N)c(Cl)cc1C(=O)N[C@@H]1CN2CCC1CC2` [MD 200054, N-(quinuclidinyl-3) amino-4 chloro-5 méthoxy-2 benzamide], the “VOMISSEMENTS % DE DIMINUTION EN NOMBRE” value [1, 3] was 95,3%, the “VOMISSEMENTS % DE DIMINUTION EN TOUT OU RIEN” value [1, 3] was 75% and the “VOMISSEMENTS NOMBRE MOYEN” value [1, 3] was 0,5. The “inhiber les vomissements induits par des drogues anticancéreuses telles que le cisplatine” value ([1]; in words, compared with the antipode MD 200051 and the corresponding racemate) was “beaucoup plus actif” and the effets secondaires [2] was “moins d'effets secondaires”.
In the case of `COc1cc(N)c(Cl)cc1C(=O)NC1CN2CCC1CC2` (racemic) [MD 780209, N-(quinuclidinyl-3) amino-4 chloro-5 méthoxy-2 benzamide, reference compound], the “VOMISSEMENTS % DE DIMINUTION EN NOMBRE” value [1, 4] is reported as 81,4%, the “VOMISSEMENTS % DE DIMINUTION EN TOUT OU RIEN” value [1, 4] is reported as 25% and the “VOMISSEMENTS NOMBRE MOYEN” value [1, 4] is reported as 2.
In the case of `COc1cc(N)c(Cl)cc1C(=O)N[C@H]1CN2CCC1CC2` [MD 200051, N-(quinuclidinyl-3) amino-4 chloro-5 méthoxy-2 benzamide], the “VOMISSEMENTS % DE DIMINUTION EN NOMBRE” value [1, 5] is reported as 34,9%, the “VOMISSEMENTS % DE DIMINUTION EN TOUT OU RIEN” value [1, 5] is reported as 0% and the “VOMISSEMENTS NOMBRE MOYEN” value [1, 5] is reported as 7.
